Assay results published in ChEMBL document CHEMBL5465560, “Selectivity Literature for EUbOPEN Chemogenomic Library” (2024).

Experiments:
[1] = target: T1, Serine/threonine-protein kinase RIO3 (Homo sapiens) (UniProt O14730); test: Selectivity interaction (KinomeScan (DiscoverX)) EUB0000092b RIOK3; settings: at 10 µM
T1 sequence (whole entry): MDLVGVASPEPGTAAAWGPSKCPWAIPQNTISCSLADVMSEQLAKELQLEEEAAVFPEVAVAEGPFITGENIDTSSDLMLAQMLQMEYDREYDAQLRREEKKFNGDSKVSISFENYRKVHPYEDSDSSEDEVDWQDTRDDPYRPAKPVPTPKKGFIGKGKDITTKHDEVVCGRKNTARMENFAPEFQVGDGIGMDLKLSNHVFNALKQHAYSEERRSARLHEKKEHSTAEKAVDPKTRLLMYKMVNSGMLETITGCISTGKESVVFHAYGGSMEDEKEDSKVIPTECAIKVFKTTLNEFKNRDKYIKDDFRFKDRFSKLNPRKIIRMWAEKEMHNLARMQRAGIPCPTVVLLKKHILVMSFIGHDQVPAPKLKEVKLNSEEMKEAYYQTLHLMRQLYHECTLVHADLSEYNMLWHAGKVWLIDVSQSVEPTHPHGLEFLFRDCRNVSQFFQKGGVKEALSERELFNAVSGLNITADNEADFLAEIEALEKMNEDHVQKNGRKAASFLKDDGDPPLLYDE

[2] = target: BDNF/NT-3 growth factors receptor (Homo sapiens) (UniProt Q16620); test: Selectivity interaction (Upstate Kinase Profiler service (Millipore)) EUB0000056c NTRK2; settings: at 1 µM
Sequence of BDNF/NT-3 growth factors receptor (Homo sapiens) (Q16620 32-822 limits assumed): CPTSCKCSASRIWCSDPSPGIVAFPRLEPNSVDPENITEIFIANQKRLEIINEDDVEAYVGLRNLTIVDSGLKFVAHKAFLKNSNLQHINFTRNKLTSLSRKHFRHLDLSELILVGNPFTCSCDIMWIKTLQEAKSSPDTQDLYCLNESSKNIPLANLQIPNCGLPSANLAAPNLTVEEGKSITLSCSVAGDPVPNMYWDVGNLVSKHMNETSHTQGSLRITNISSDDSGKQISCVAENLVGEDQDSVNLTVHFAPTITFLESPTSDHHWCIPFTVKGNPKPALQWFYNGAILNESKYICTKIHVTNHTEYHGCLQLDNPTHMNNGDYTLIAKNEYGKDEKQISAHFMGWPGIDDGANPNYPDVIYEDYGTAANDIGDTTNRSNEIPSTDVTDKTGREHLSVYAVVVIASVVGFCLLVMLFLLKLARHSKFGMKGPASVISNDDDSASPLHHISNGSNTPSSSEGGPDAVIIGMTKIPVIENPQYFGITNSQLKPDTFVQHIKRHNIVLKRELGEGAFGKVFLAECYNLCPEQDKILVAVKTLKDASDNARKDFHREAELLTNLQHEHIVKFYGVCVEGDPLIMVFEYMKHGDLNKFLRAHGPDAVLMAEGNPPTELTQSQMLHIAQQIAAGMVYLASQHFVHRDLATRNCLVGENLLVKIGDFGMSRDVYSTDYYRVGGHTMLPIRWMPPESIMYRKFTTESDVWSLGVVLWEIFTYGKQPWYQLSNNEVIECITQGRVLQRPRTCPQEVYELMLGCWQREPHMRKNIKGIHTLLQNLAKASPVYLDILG

[3] = target: T2, Serine/threonine-protein kinase DCLK1 (Homo sapiens) (UniProt O15075); test: Selectivity interaction (Kinase panel (Z-LYTE Assay)) EUB0001632a DCLK1; settings: at 10 µM
T2 sequence (whole entry): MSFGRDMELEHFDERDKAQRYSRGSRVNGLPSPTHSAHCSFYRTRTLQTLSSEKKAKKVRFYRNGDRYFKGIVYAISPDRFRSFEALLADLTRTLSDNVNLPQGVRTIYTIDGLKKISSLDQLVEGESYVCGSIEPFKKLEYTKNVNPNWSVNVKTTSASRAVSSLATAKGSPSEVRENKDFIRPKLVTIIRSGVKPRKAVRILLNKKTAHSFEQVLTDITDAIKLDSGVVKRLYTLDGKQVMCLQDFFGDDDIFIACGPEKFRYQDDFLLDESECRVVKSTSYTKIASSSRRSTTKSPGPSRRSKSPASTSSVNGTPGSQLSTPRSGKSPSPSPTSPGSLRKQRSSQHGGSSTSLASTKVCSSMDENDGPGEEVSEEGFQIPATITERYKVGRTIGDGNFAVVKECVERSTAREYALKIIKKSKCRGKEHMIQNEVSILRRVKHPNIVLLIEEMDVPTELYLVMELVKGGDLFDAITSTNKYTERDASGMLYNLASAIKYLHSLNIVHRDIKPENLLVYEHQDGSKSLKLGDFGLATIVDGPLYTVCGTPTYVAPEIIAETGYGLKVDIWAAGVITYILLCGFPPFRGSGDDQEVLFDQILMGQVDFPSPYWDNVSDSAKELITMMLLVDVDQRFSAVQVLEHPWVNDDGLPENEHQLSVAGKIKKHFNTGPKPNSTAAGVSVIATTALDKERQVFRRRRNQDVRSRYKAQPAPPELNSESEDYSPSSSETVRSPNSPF

[4] = target: Ribosomal protein S6 kinase alpha-2 (Homo sapiens) (UniProt Q15349); test: Selectivity interaction (ActivX KiNativ screen (kinase selectivity in THP-1 cell lysates)) EUB0000639a RPS6KA2; format: subcellular; settings: lysate, at 5 µM
Sequence of Ribosomal protein S6 kinase alpha-2 (Homo sapiens) (Q15349 whole entry): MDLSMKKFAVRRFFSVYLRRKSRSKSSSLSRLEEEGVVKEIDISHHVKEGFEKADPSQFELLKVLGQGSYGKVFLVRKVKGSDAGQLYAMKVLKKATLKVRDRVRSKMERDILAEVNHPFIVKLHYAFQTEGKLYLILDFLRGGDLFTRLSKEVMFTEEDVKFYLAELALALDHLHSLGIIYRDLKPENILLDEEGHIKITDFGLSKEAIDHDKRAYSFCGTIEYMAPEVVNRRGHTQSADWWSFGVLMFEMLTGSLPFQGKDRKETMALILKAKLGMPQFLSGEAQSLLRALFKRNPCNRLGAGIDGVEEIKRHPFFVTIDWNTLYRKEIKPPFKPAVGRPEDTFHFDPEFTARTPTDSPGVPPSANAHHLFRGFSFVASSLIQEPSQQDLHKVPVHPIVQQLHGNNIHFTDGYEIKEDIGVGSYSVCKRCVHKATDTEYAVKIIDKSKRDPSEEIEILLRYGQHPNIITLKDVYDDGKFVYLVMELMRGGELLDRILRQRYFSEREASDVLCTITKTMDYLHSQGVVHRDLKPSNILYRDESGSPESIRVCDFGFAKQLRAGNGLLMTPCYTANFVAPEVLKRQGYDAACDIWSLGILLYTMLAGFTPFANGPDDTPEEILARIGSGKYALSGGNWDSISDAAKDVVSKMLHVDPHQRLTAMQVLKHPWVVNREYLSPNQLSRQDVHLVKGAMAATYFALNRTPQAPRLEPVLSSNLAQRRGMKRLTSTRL

[5] = target: T3, Testis-specific serine/threonine-protein kinase 1 (Homo sapiens) (UniProt Q9BXA7); settings: at 10 µM
T3 sequence (whole entry): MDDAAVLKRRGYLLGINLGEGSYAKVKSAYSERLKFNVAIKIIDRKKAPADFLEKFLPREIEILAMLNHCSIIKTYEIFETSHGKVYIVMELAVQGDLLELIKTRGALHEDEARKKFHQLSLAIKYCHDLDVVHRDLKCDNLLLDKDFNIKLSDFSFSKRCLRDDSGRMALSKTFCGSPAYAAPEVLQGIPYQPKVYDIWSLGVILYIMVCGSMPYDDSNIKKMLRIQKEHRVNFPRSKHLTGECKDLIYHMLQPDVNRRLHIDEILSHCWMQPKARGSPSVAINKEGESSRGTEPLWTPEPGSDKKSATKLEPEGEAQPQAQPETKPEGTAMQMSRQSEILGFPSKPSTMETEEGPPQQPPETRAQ

[6] = target: T4, Serine/threonine-protein kinase ULK2 (Homo sapiens) (UniProt Q8IYT8); test: Selectivity interaction (Ambit KINOMEscan and KiNATiv profiling in Jurkat cells) EUB0000090b ULK2; format: cell-based; settings: at 1 µM
T4 sequence (whole entry): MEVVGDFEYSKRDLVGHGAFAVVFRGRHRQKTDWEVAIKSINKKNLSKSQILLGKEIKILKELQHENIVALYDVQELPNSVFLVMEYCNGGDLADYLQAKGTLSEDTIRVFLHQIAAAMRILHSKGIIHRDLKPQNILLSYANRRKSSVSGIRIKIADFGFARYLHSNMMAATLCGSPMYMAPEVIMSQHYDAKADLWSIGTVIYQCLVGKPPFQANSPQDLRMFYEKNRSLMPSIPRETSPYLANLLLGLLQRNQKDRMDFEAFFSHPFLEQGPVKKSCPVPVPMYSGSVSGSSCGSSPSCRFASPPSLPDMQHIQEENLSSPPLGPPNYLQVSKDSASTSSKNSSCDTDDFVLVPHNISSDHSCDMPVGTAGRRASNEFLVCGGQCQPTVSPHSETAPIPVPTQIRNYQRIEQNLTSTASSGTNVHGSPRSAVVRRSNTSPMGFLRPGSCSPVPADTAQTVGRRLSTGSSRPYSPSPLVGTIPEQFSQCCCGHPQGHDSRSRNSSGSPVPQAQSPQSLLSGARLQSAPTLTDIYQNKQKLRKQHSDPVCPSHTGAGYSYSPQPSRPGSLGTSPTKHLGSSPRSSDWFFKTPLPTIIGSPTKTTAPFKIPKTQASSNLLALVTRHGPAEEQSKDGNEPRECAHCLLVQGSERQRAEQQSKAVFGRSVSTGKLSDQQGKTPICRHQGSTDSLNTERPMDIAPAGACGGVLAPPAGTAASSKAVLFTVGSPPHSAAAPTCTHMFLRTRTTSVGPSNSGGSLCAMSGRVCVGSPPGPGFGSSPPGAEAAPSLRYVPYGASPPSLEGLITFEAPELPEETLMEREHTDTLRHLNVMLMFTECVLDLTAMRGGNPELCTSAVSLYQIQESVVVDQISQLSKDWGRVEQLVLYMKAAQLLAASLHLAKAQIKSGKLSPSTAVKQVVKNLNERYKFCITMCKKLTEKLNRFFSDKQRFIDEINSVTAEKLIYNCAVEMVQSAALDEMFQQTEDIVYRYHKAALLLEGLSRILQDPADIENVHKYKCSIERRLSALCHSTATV

[7] = target: Serine/threonine-protein kinase WNK2 (Homo sapiens) (UniProt Q9Y3S1); test: Selectivity interaction (ActivX KiNativ screen (ex vivo kinase selectivity in human PBMCs)) EUB0001619a WNK2; format: cell-based; settings: PBMC, at 1 µM
Sequence of Serine/threonine-protein kinase WNK2 (Homo sapiens) (Q9Y3S1 whole entry): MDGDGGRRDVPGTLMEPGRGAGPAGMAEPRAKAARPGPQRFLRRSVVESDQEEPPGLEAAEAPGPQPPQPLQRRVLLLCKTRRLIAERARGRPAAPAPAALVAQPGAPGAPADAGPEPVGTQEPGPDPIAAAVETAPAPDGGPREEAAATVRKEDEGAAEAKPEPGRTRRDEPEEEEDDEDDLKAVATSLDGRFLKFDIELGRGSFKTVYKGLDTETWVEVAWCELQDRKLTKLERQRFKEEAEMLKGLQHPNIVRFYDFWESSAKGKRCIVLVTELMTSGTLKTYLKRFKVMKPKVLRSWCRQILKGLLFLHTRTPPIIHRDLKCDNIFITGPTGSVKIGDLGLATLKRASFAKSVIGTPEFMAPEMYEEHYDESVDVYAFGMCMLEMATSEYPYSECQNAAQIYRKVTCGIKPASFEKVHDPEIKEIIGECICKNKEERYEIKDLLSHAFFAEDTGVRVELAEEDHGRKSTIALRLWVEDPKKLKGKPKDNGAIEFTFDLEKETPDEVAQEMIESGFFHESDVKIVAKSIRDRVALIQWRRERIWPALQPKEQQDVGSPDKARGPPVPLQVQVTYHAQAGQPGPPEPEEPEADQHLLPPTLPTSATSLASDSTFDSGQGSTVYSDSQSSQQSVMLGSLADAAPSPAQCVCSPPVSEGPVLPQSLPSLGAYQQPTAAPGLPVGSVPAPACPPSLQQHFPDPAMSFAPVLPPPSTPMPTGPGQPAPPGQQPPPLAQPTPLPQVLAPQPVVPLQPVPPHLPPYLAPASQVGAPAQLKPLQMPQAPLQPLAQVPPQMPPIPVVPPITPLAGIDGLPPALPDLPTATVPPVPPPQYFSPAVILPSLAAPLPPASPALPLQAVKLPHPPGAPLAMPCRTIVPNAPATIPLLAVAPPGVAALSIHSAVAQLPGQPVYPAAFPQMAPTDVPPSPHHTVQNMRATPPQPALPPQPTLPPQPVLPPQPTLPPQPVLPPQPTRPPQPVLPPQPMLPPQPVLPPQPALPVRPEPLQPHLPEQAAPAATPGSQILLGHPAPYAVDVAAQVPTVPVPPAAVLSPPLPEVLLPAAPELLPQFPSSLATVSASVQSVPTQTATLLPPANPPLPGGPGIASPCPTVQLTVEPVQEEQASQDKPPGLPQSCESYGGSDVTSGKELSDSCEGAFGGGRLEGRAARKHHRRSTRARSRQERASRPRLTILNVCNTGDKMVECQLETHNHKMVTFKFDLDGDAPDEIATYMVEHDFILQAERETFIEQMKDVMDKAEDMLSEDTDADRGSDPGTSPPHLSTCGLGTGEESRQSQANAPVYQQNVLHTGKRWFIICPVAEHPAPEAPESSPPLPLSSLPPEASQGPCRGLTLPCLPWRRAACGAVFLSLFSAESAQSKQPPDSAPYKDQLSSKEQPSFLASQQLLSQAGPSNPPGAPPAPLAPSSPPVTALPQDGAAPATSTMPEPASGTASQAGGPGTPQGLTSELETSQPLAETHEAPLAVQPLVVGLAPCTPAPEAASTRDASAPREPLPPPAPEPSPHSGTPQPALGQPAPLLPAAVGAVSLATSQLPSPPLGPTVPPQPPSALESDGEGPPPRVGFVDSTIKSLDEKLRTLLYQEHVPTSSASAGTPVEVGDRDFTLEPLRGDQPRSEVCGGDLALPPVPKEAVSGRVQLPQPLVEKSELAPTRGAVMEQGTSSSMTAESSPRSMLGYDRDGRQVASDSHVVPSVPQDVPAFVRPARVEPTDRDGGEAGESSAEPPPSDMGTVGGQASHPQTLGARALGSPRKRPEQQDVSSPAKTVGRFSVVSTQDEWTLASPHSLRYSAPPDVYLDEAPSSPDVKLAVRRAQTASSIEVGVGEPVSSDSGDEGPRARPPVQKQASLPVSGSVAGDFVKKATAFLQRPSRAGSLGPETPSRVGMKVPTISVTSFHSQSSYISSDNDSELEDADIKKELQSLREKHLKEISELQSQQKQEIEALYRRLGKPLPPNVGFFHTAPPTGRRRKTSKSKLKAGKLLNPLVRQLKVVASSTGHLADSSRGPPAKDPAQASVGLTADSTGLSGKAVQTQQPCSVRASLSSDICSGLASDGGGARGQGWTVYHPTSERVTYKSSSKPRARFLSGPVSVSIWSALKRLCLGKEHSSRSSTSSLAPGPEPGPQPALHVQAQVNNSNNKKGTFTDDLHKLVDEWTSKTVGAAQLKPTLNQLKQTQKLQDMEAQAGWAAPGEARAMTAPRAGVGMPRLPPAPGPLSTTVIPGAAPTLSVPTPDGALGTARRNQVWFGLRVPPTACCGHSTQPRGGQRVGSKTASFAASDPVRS

SMILES: CCC(=O)N1CCN(c2ccc(-n3c(=O)ccc4cnc5ccc(-c6cnc7ccccc7c6)cc5c43)cc2C(F)(F)F)CC1
- % of control [1]: 90%

SMILES: Cc1ccc(-c2ccc3c(ccc4sc5c(c43)NC[C@@H](C)NC5=O)n2)cn1
- % of inhibition [2]: -8%

SMILES: Cn1cc(-n2cnc3c(NCc4nc5cc(Cl)c(Cl)cc5[nH]4)nc(N4CCOCC4)nc32)cn1
- % of control [3]: -1.19%

SMILES: CC[C@@H]1[C@H](F)C(=O)N[C@@H]1COc1nccc2cc(C(N)=O)c(OC)cc12 [ZIMLOVISERTIB]
- % of inhibition [4]: 6.4%

SMILES: COCC(=O)NC/C=C/c1ccc2ncnc(Nc3ccc(Oc4ccc(C)nc4)c(C)c3)c2c1 [CP-724714]
- % of control [5]: 100%

SMILES: CN(C)C/C=C/C(=O)Nc1ccc(C(=O)N2CCCC(Nc3ncc(Cl)c(-c4c[nH]c5ccccc45)n3)C2)cc1 (configuration not stated)
- % of control [6]: 100%

SMILES: N#Cc1cccc(-c2c[nH]c3ncnc(N4CCOCC4)c23)c1
- % of inhibition [7]: -1%
